Results: publication PMC12566046, “Arylpiperazinyl-Benzocycloheptapyrrole-Carboxamides Endowed with Dual Anticancer and Antiviral Activities” (Molecules, 2025)

Columns and labels:
[1] = test system: M14 (melanoma cell line); test: NCI-60 single-dose assay; assay type: cell-based, human; settings: human
Method in brief: (§1)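 One-dose NCI-60 screen measuring cytotoxic activity; compounds meeting pre-set threshold inhibition criteria in a minimum number of lines advanced to the five-dose assay.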

[2] = test system: SN12C (renal cancer cell line); test: NCI-60 single-dose assay; assay type: cell-based, human; settings: Homo sapiens, read-out: growth inhibition (GI%) and cytotoxicity (negative values)
Method in brief: as §1

[3] = test system: COLO 205 (colon cancer cell line); test: NCI-60 single-dose assay; assay type: cell-based, human; settings: human
Method in brief: as §1

[4] = test system: HCT-15 (colon cancer cell line); test: NCI-60 single-dose assay; assay type: cell-based, human; settings: Homo sapiens, HCT-15, read-out: growth inhibition (GI%) and cytotoxicity (negative values)
Method in brief: as §1

[5] = test system: CAKI-1 (renal cancer cell line); test: NCI-60 single-dose assay; assay type: cell-based, human; settings: Homo sapiens, CAKI-1, read-out: growth inhibition (GI%) and cytotoxicity (negative values)
Method in brief: as §1

[6] = test system: UACC-62 (melanoma cell line); test: NCI-60 single-dose assay; assay type: cell-based, human; settings: for inhibition at 10 µM: Homo sapiens, UACC-62, read-out: growth inhibition (GI%) and cytotoxicity (negative values)
Method in brief: as §1

[7] = test system: SW-620 (colon cancer cell line); test: NCI-60 single-dose assay; assay type: cell-based, human; settings: for inhibition at 10 µM: Homo sapiens, SW-620, read-out: growth inhibition (GI%) and cytotoxicity (negative values)
Method in brief: as §1

[8] = test system: MOLT-4 (leukemia cell line); test: NCI-60 single-dose assay; assay type: cell-based, human; settings: Homo sapiens, MOLT-4, read-out: growth inhibition (GI%) and cytotoxicity (negative values)
Method in brief: as §1

[9] = test system: MDA-MB-435 (melanoma cell line); test: NCI-60 single-dose assay; assay type: cell-based, human; settings: for inhibition at 10 µM: Homo sapiens, MDA-MB-435, read-out: growth inhibition (GI%) and cytotoxicity (negative values)
Method in brief: as §1

[10] = test system: HT29 (colon cancer cell line); test: NCI-60 single-dose assay; assay type: cell-based, human; settings: for growth inhibition (GI%) and cytotoxicity (negative values): human
Method in brief: as §1

[11] = test system: 786-0 (renal cancer cell line); test: NCI-60 single-dose assay; assay type: cell-based, human; settings: Homo sapiens, 786-0, read-out: growth inhibition (GI%) and cytotoxicity (negative values)
Method in brief: as §1

[12] = test system: NCI-H460 (non-small cell lung cancer cell line); test: NCI-60 single-dose assay; assay type: cell-based, human; settings: Homo sapiens, NCI-H460, read-out: growth inhibition (GI%) and cytotoxicity (negative values)
Method in brief: as §1

[13] = test system: MALME-3M (melanoma cell line); test: NCI-60 single-dose assay; assay type: cell-based, human; settings: for growth inhibition (GI%) and cytotoxicity (negative values): human
Method in brief: as §1

[14] = test system: LOX IMVI (melanoma cell line); test: NCI-60 single-dose assay; assay type: cell-based, human; settings: for inhibition at 10 µM: Homo sapiens, LOX IMVI, read-out: growth inhibition (GI%) and cytotoxicity (negative values)
Method in brief: as §1

[15] = test system: T-47D (breast cancer cell line); test: NCI-60 single-dose assay; assay type: cell-based, human; settings: Homo sapiens, T47D, read-out: growth inhibition (GI%) and cytotoxicity (negative values)
Method in brief: as §1

[16] = test system: HL-60(TB) (leukemia cell line); test: NCI-60 single-dose assay; assay type: cell-based, human; settings: human
[17] = test system: HCC-2998 (colon cancer cell line); test: NCI-60 single-dose assay; assay type: cell-based, human; settings: for growth inhibition (GI%) and cytotoxicity (negative values): human
Method in brief: as §1

[18] = test system: HCT-116 (colon cancer cell line); test: NCI-60 single-dose assay; assay type: cell-based, human; settings: Homo sapiens, HCT-116, read-out: growth inhibition (GI%) and cytotoxicity (negative values)
Method in brief: as §1

[19] = test system: NCI-H226 (non-small cell lung cancer cell line); test: NCI-60 single-dose assay; assay type: cell-based, human; settings: Homo sapiens, NCI-H226, read-out: growth inhibition (GI%) and cytotoxicity (negative values)
Method in brief: as §1

[20] = test system: BT-549 (breast cancer cell line); test: NCI-60 single-dose assay; assay type: cell-based, human; settings: Homo sapiens, BT-549, read-out: growth inhibition (GI%) and cytotoxicity (negative values)
Method in brief: as §1

[21] = test system: NCI-H23 (non-small cell lung cancer cell line); test: NCI-60 single-dose assay; assay type: cell-based, human; settings: Homo sapiens, NCI-H23, read-out: growth inhibition (GI%) and cytotoxicity (negative values)
Method in brief: as §1

[22] = test system: SK-MEL-2 (melanoma cell line); test: NCI-60 single-dose assay; assay type: cell-based, human; settings: for inhibition at 10 µM: Homo sapiens, SK-MEL-2, read-out: growth inhibition (GI%) and cytotoxicity (negative values)
Method in brief: as §1

[23] = test system: SK-MEL-28 (melanoma cell line); test: NCI-60 single-dose assay; assay type: cell-based, human; settings: for growth inhibition (GI%) and cytotoxicity (negative values): human
Method in brief: as §1

[24] = test system: MCF-7 (breast cancer cell line); test: NCI-60 single-dose assay; assay type: cell-based, human; settings: Homo sapiens, MCF7, read-out: growth inhibition (GI%) and cytotoxicity (negative values), MCF-7, 10^−5 M
Method in brief: as §1

[25] = test system: SR (leukemia cell line); test: NCI-60 single-dose assay; assay type: cell-based, human; settings: for inhibition at 10 µM: Homo sapiens, read-out: growth inhibition (GI%) and cytotoxicity (negative values)
Method in brief: as §1

[26] = test system: MDA-MB-231/ATCC (breast cancer cell line); test: NCI-60 single-dose assay; assay type: cell-based, human; settings: Homo sapiens, MDA-MB-231, read-out: growth inhibition (GI%) and cytotoxicity (negative values)
Method in brief: as §1

[27] = test system: UACC-257 (melanoma cell line); test: NCI-60 single-dose assay; assay type: cell-based, human; settings: for growth inhibition (GI%) and cytotoxicity (negative values): human
Method in brief: as §1

[28] = test system: RPMI-8226 (leukemia cell line); test: NCI-60 single-dose assay; assay type: cell-based, human; settings: for inhibition at 10 µM: Homo sapiens, RPMI-8226, read-out: growth inhibition (GI%) and cytotoxicity (negative values)
Method in brief: as §1

[29] = test system: MDA-MB-468 (breast cancer cell line); test: NCI-60 single-dose assay; assay type: cell-based, human; settings: human
Method in brief: as §1

[30] = test system: NCI-H522 (non-small cell lung cancer cell line); test: NCI-60 single-dose assay; assay type: cell-based, human; settings: Homo sapiens, NCI-H522, read-out: growth inhibition (GI%) and cytotoxicity (negative values)
Method in brief: as §1

[31] = test system: EKVX (non-small cell lung cancer cell line); test: NCI-60 single-dose assay; assay type: cell-based, human; settings: Homo sapiens, read-out: growth inhibition (GI%) and cytotoxicity (negative values)
Method in brief: as §1

[32] = test system: KM12 (colon cancer cell line); test: NCI-60 single-dose assay; assay type: cell-based, human; settings: Homo sapiens, KM12, read-out: growth inhibition (GI%) and cytotoxicity (negative values)
Method in brief: as §1

[33] = test system: RXF 393 (renal cancer cell line); test: NCI-60 single-dose assay; assay type: cell-based, human; settings: for inhibition at 10 µM: Homo sapiens, RXF 393, read-out: growth inhibition (GI%) and cytotoxicity (negative values)
Method in brief: as §1

[34] = test system: CCRF-CEM (leukemia cell line); test: NCI-60 single-dose assay; assay type: cell-based, human; settings: Homo sapiens, read-out: growth inhibition (GI%) and cytotoxicity (negative values)
Method in brief: as §1

[35] = test system: UO-31 (renal cancer cell line); test: NCI-60 single-dose assay; assay type: cell-based, human; settings: Homo sapiens, UO-31, read-out: growth inhibition (GI%) and cytotoxicity (negative values)
Method in brief: as §1

[36] = test system: IAV strain A/PR/8/34 (H1N1); test: microbe, parasite or virus in culture; settings: Influenza A virus, MDCK, read-out: IAV/MDCK EC50

Structure (SMILES) | growth inhibition (GI%) and cytotoxicity (negative values) [1] | inhibition at 10 µM [2] | growth inhibition (GI%) and cytotoxicity (negative values) [3] | inhibition at 10 µM [4] | inhibition at 10 µM [5] | inhibition at 10 µM [8] | inhibition at 10 µM [11] | inhibition at 10 µM [12] | growth inhibition (GI%) and cytotoxicity (negative values) [13] | inhibition at 10 µM [15] | growth inhibition (GI%) and cytotoxicity (negative values) [16] | growth inhibition (GI%) and cytotoxicity (negative values) [17] | inhibition at 10 µM [18] | inhibition at 10 µM [19] | inhibition at 10 µM [21] | inhibition at 10 µM [30] | inhibition at 10 µM [31] | inhibition at 10 µM [32] | inhibition at 10 µM [34] | inhibition at 10 µM [35] | other results
O=C(NCCCN1CCN(Cc2ccccc2)CC1)c1c(Cl)[nH]c2c1CCCc1ccccc1-2 [Compound 20, N-(3-(4-Benzylpiperazin-1-yl)propyl)-2-chloro-1,4,5,6-tetrahydrobenzo[6,7]cyclohepta[1,2-b]pyrrole-3-carboxamide] | −69.37% | < 60% | −59.92% | 99% | 84.7% | < 60% | 87% | 83.1% | −84.03% | 78.5% | −23.10% | −91.84% | 95.5% | < 60% | 60.2% | 92.2% | 77.2% | 70.3% | < 60% | 65.9% | growth inhibition (GI%) and cytotoxicity (negative values) ([6]; human): −59.22%; growth inhibition (GI%) and cytotoxicity (negative values) ([7]; human): −40.23%; growth inhibition (GI%) and cytotoxicity (negative values) ([9]; human): −21.33%; inhibition at 10 µM ([10]; Homo sapiens, HT-29, read-out: growth inhibition (GI%) and cytotoxicity (negative values)): 94.7%; growth inhibition (GI%) and cytotoxicity (negative values) ([14]; human): −69.19%; inhibition at 10 µM [20]: 68.4%; growth inhibition (GI%) and cytotoxicity (negative values) ([22]; human): −52.93%; growth inhibition (GI%) and cytotoxicity (negative values) [23]: −88.58%; inhibition at 10 µM [24]: 95.5%; inhibition at 10 µM [25]: 99.4%; inhibition at 10 µM [26]: 62.6%; growth inhibition (GI%) and cytotoxicity (negative values) [27]: −58.02%; growth inhibition (GI%) and cytotoxicity (negative values) ([28]; human): −1.74%; growth inhibition (GI%) and cytotoxicity (negative values) [29]: −29.55%; inhibition at 10 µM [33]: 78.2%; EC50 [36]: 17.7 µM
COc1ccccc1N1CCN(CCNC(=O)c2[nH]c3c(c2Cl)CCCc2ccccc2-3)CC1 [Compound 5] | −22.16% | 71.8% | −48.74% | 92.5% | 77.9% | 93% | 63% | 79.2% |  |  | −8.91% |  | 94.6% | < 60% | 62.2% | 85.5% | 94.2% | 67.7% | 71.6% | 70% | inhibition at 10 µM [6]: < 60%; inhibition at 10 µM [7]: 67.4%; inhibition at 10 µM [9]: 61.8%; growth inhibition (GI%) and cytotoxicity (negative values) [10]: −17.44%; inhibition at 10 µM ([13]; Homo sapiens, Malme-3M, read-out: growth inhibition (GI%) and cytotoxicity (negative values)): < 60%; inhibition at 10 µM [14]: 82.8%; inhibition at 10 µM ([17]; Homo sapiens, HCC 2998, read-out: growth inhibition (GI%) and cytotoxicity (negative values)): < 60%; inhibition at 10 µM [22]: < 60%; inhibition at 10 µM ([23]; Homo sapiens, SK-MEL-28, read-out: growth inhibition (GI%) and cytotoxicity (negative values)): < 60%; inhibition at 10 µM [25]: 90.1%; inhibition at 10 µM ([27]; Homo sapiens, UACC-257, read-out: growth inhibition (GI%) and cytotoxicity (negative values)): < 60%; inhibition at 10 µM [28]: < 60%; inhibition at 10 µM [33]: 89.4%
O=C(NCCCN1CCN(c2ccccc2)CC1)c1cc2c([nH]1)-c1ccccc1CCC2 [Compound 10, N-(3-(4-Phenylpiperazin-1-yl)propyl)-1,4,5,6-tetrahydrobenzo[6,7]cyclohepta[1,2-b]pyrrole-2-carboxamide] | −59.25% | < 60% | −58.03% | 91.2% | 89.4% | < 60% | 68.7% | 90.7% | −72.64% | 65.8% | −30.92% | −9.32% | 95.7% | 75.2% | < 60% | 71.4% | 74.2% | 73.7% | 61.2% | < 60% | inhibition at 10 µM [6]: < 60%; inhibition at 10 µM [7]: 80.1%; inhibition at 10 µM [9]: 75.1%; growth inhibition (GI%) and cytotoxicity (negative values) [10]: −2.47%; inhibition at 10 µM [14]: 95.2%; inhibition at 10 µM [20]: < 60%; inhibition at 10 µM [22]: 75%; growth inhibition (GI%) and cytotoxicity (negative values) [23]: −29.31%; inhibition at 10 µM [24]: 80.2%; growth inhibition (GI%) and cytotoxicity (negative values) ([25]; human): −19.75%; inhibition at 10 µM [26]: < 60%; growth inhibition (GI%) and cytotoxicity (negative values) [27]: −8.50%; inhibition at 10 µM [28]: < 60%; growth inhibition (GI%) and cytotoxicity (negative values) [29]: −13.75%; growth inhibition (GI%) and cytotoxicity (negative values) ([33]; human): −8.69%
